Assay type in all cases: in vivo
For test [1], the system named is Alopecurus myosuroides (ALOMY). Nature of the test: Test 2 glasshouse assay (IF50 formulation, X-77), post-emergence herbicidal activity. Particulars: 360 h, 15 DAA, visual score, read-out: Post-emergence herbicidal activity (percentage phytotoxicity) ALOMY; for pest or weed control at 30 g/ha: application rate 30 g/ha; for pest or weed control at 125 g/ha: application rate 125 g/ha. On the procedure: (§1) Seeds of a variety of monocotyledonous and dicotyledonous test plants are sown in standard soil in pots. The plants are cultivated for one day (for pre-emergence) or for about 12 days (for post-emergence) under controlled conditions in a glasshouse (warm climate species at 24/18° C., cool climate species at 20/16° C., both at day/night; 16 hours light; 65% humidity).
(§2) An “instant formulation”, known as the “IF50”, containing 50 g/liter (i.e. 5% w/v) of the “technical” (i.e. unformulated) active ingredient is prepared by dissolving the active ingredient in a mixture of organic solvents and emulsifier, details of which are provided in the Table below. This IF50 is then mixed with a small, variable amount of acetone to aid dissolution, before addition of a 0.2% v/v aqueous solution of the adjuvant X-77 (which is a mixture of alkyl aryl polyoxyethylene glycols and free fatty acids in isopropanol, CAS Registry number 11097-66-8), as the aqueous diluent, to form an aqueous spray solution which contains a predetermined concentration of the active ingredient (which varies depending on the application rate of the active ingredient to the plants) and 0.2% v/v of the adjuvant X-77. This aqueous spray solution is then sprayed onto the plants, after one day's cultivation (for pre-emergence), or after about 12 days' cultivation (range=10-13 days) (for post-emergence).
(§3) The test plants are then grown on, in a glasshouse (greenhouse) under controlled conditions (warm climate species at 24/18° C., cool climate species at 20/16° C., both at day/night; 16 hours light; 65% humidity) and are watered twice daily. 15 days after application of the test herbicide (15DAA) (for post-emergence), and 20 days after application of the test herbicide (20DAA) (for pre-emergence), the test plants are evaluated visually, and an assessed percentage phytotoxicity score is given for each herbicidal application on each plant species (with 100%=total damage to plant; 0%=no damage to plant).
(§4) Cool climate (“cool season”) grassy monocotyledonous weeds: Alopecurus myosuroides (ALOMY), Avena fatua (AVEFA), Lolium perenne (LOLPE).

A further test relates to Avena fatua (AVEFA). Described as above. Conditions: 360 h, 15 DAA, visual score, read-out: Post-emergence herbicidal activity (percentage phytotoxicity) AVEFA; for pest or weed control at 30 g/ha: application rate 30 g/ha; for pest or weed control at 125 g/ha: application rate 125 g/ha. On the procedure: as §1, §2, §3, §4
In the next test the test system is Lolium perenne (LOLPE). The test is described as above. Conditions: 360 h, 15 DAA, visual score, read-out: Post-emergence herbicidal activity (percentage phytotoxicity) LOLPE; for pest or weed control at 30 g/ha: application rate 30 g/ha; for pest or weed control at 125 g/ha: application rate 125 g/ha. As to the method: as §1, §2, §3, §4
Test [2] has as its system Sorghum vulgare Pers. (SORVU). Nature of the test: Test 2 glasshouse assay (IF50 formulation, X-77), pre-emergence herbicidal activity. Conditions: Sorghum bicolor, 480 h, 20DAA, read-out: Percentage phytotoxicity SORVU. On the procedure:
as §1, §2, §3
(§5) Warm climate (“warm season”) grassy monocotyledonous weeds: Setaria faberi (SETFA), Panicum miliaceum (PANMI), Sorghum vulgare Pers. (SORVU) (or Sorghum bicolor (L) Moench ssp. Bicolor), Digitaria sanguinalis (DIGSA), Echinochloa crus-galli (ECHCG), and Brachiaria plantaginea (BRAPL).

For test [3], the system named is Digitaria sanguinalis (DIGSA). Described as above. Conditions: 480 h, 20DAA, read-out: Percentage phytotoxicity DIGSA. On the procedure: as §1, §2, §3, §5
In test [4] the test system is Alopecurus myosuroides (ALOMY). Description: Test 1 glasshouse assay, post-emergence herbicidal activity. Conditions: 312 h, after 13 days, read-out: Percentage phytotoxicity ALOMY. The procedure, abridged:
(§6)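 Plants sprayed 8 days after sowing with active ingredient in acetone/water (50:50) containing 0.5% Tween 20, grown in glasshouse at 24/16°C day/night, 14 h light, 65% humidity. Phytotoxicity scored visually after 13 days as percentage damage (100% = total damage; 0% = none).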

In test [5] the test system is Echinochloa crus-galli (ECHCG). Described as above. Particulars: 312 h, after 13 days, read-out: Percentage phytotoxicity ECHCG. The procedure, abridged: as §6
Test [6] has as its system Triticum aestivum (TRZAW, winter wheat). Description: Test 2 glasshouse assay (IF50 formulation, X-77), post-emergence herbicidal activity. Conditions: 360 h, 15 DAA, visual score, read-out: Post-emergence herbicidal activity (percentage phytotoxicity) TRZAW; for plant injury at 30 g/ha: application rate 30 g/ha; for plant injury at 125 g/ha: application rate 125 g/ha. As to the method: as §1, §2, §3
(§7) Cool climate crop plants: Triticum aestivum (TRZAW, winter wheat), Brassica napus (BRSNN, rape, also called oilseed rape or rapeseed), Beta vulgaris (BEAVA, sugarbeet). Warm climate crop plants: Glycine max (GLXMA, soybean).

Test [7] deals with Glycine max (GLXMA, soybean). The description is as above. Conditions: 360 h, 15 DAA, visual score, read-out: Post-emergence herbicidal activity (percentage phytotoxicity) GLXMA; for plant injury at 30 g/ha: application rate 30 g/ha; for plant injury at 125 g/ha: application rate 125 g/ha. As to the method:
as §1, §2, §3, §7

Test [8] relates to Beta vulgaris (BEAVA, sugarbeet). The description is as above. Conditions: 360 h, 15 DAA, visual score, read-out: Post-emergence herbicidal activity (percentage phytotoxicity) BEAVA; for plant injury at 30 g/ha: application rate 30 g/ha; for plant injury at 125 g/ha: application rate 125 g/ha. On the procedure: as §1, §2, §3, §7
Test [9] relates to Brassica napus (BRSNN, rape). The test is described as above. Particulars: 360 h, 15 DAA, visual score, read-out: Post-emergence herbicidal activity (percentage phytotoxicity) BRSNN; for plant injury at 30 g/ha: application rate 30 g/ha; for plant injury at 125 g/ha: application rate 125 g/ha. On the procedure:
as §1, §2, §3, §7

Setting [10] is: post-emergence (Example 1B Table 1).
Setting [11] is: post-emergence (Example 1B Table 2).

Like-named read-outs stand apart in the source and are kept apart here.

On to `C#CCC1CC(OC(C)=O)=C(c2c(C)cc(-c3ccc(F)cc3)cc2C)C1=O` (stereo not shown) [Compound A45], for which the pest or weed control at 30 g/ha in test [1] stood at 70%; with Avena fatua (AVEFA), 70%; in the test on Lolium perenne (LOLPE), 80%. Moreover, the pest or weed control at 125 g/ha in test [1] turned out to be 90%; with Avena fatua (AVEFA), 90%; in the test with Lolium perenne (LOLPE), 100%; in test [2] (125 g/ha), 80%; in test [3] (125 g/ha), 90%. The pest or weed control at 62.5 g/ha in [4] (setting [10]) came out at 90%; in test [5] (setting [10]) it was 100%. Moreover, the pest or weed control at 250 g/ha in test [4] (setting [10]) and in test [5] (setting [10]) was 100% throughout. Besides, the plant injury at 30 g/ha in test [6] came to 80%; in [7], 0%; in test [8], 70%; in test [9], 50%. The plant injury at 125 g/ha amounted to 80% in test [6], 10% in [7], 70% in test [8] and 80% in test [9].

On to `C#CCC1CC(=O)C(c2c(F)cc(-c3ccc(F)c(F)c3)cc2OC)C1=O` (stereo not shown) [Compound A22], for which the pest or weed control at 30 g/ha in test [1] was determined as 50%; with Avena fatua (AVEFA) it was 0%; with Lolium perenne (LOLPE) it was 10%; in test [4] (setting [10]), 70%; in test [5] (setting [10]), 90%. The pest or weed control at 125 g/ha in test [1] is 70%; with Avena fatua (AVEFA) it was 70%; in the test with Lolium perenne (LOLPE) it was 50%. In addition, the pest or weed control at 250 g/ha in test [2] is 70%; in [3] it was 90%; in test [4] (setting [10]) it was 100%; in test [5] (setting [10]), 100%. Moreover, the plant injury at 30 g/ha in test [6] stood at 20%; in [7] it was 0%; in test [8] it was 0%; in test [9], 50%. Further, the plant injury at 125 g/ha in test [6] is 70%; in test [7], 40%; in test [8] it was 0%; in test [9] it was 70%.

Regarding `C#CCC1CC(=O)C(c2c(C)cc(-c3ccc(Cl)cn3)cc2C)C1=O` (stereo not shown) [Compound A2], the pest or weed control at 30 g/ha in test [1] was 20%; with Avena fatua (AVEFA) it was 60%; with Lolium perenne (LOLPE), 30%. Besides, the pest or weed control at 250 g/ha was 100% in [1] (application rate 250 g/ha); 90% in the test on Avena fatua (AVEFA) (application rate 250 g/ha); 90% with Lolium perenne (LOLPE) (application rate 250 g/ha); 80% in [2]; 70% in test [3]; 90% in test [4] (setting [10]). The pest or weed control at 250 g/ha in [4] (setting [11]), in [5] (setting [10]) and in test [5] (setting [11]) was 100% each time. The pest or weed control at 62.5 g/ha in test [4] (setting [10]) turned out to be 90%; in [4] (setting [11]), 70%; in test [5] (setting [10]) it was 100%; in test [5] (setting [11]) it was 90%. Besides, the plant injury at 30 g/ha in test [6] was 70%; in test [7] it was 10%; in test [8], 40%; in test [9], 50%. Moreover, the plant injury at 250 g/ha in test [6] (application rate 250 g/ha) is 90%; in test [7] (application rate 250 g/ha), 20%; in test [8] (application rate 250 g/ha) it was 50%; in [9] (application rate 250 g/ha), 80%.

As to `C#CCC1CC(=O)C(c2c(Cl)cc(-c3ccc(F)cc3F)cc2OC)C1=O` (stereo not shown) [Compound A12], the pest or weed control at 30 g/ha in test [1] is 60%; in the test on Avena fatua (AVEFA), 10%; in the test on Lolium perenne (LOLPE), 30%; in [4] (setting [10]), 80%; in test [5] (setting [10]), 100%. Further, the pest or weed control at 125 g/ha in [1] is 80%; with Avena fatua (AVEFA), 80%; in the test on Lolium perenne (LOLPE), 90%. The pest or weed control at 250 g/ha in test [2] is 90%; in test [3], 100%; in test [4] (setting [10]), 100%; in [4] (setting [11]) it was 100%; in test [5] (setting [10]) it was 100%; in [5] (setting [11]), 100%. In addition, the pest or weed control at 62.5 g/ha in test [4] (setting [11]) worked out at 60%; in test [5] (setting [11]) it was 100%. The plant injury at 30 g/ha worked out at 40% in [6], 0% in test [7], 40% in test [8] and 50% in [9]. The plant injury at 125 g/ha in [6] came out at 80%; in [7], 0%; in test [8], 40%; in test [9], 60%.

The values above are taken from patent US10375956B2, “Herbicidally active 2-(substituted-phenyl)-cyclopentane-1,3-dione compounds and derivatives thereof” (Syngenta Limited, priority 2013, dated 2019).
